Columns and labels:
[1] = Distribution coefficient log D7.4; assay type: physicochemical; conditions: pH 7.4
Excerpt: Table 1 Distribution Coefficients and IC50 (μM) ^b Values of the Complexes on Caco-2/TC7 Cancer Cells Compared with Auranofin ^a | column: log D7.4

Caco-2/TC7 cells = test: MTT antiproliferative assay on Caco-2/TC7 colon cancer cells; assay type: cell-based, human; conditions: 72 h incubation, undifferentiated cells, mean ± SE
Excerpt: The antiproliferative effect of the reference drug auranofin was included as positive control. […] However, the coordination of the gold-phosphane unit to these ligands derived from NSAIDs leads to much more cytotoxic complexes, as can be observed in Table 1 with IC50 values in the range of that found in auranofin or even lower values for complexes [Au(L1)(CyJohnPhos)] (1a), [Au(L4)(CyJohnPhos)] […] This fact has already been observed previously in related gold complexes with an alkyne ligand derived from naproxen molecule,[43] which makes naproxen an excellent pharmacophore when coordinated to gold(I).
The human Caco-2 cell line (TC7 clone) was kindly provided by Dr. Edith Brot-Laroche (Université Pierre et Marie Curie-Paris 6, UMR S 872, Les Cordeliers, France), Human epithelial fibroblast cells (NHDF-Ad, Lonza, Porriño, Spain) were kindly provided by Dr. Gracia Mendoza (Aragon Health Research Institute, IIS Aragón, Spain). Caco-2 cells (passages 36–48) and fibroblasts (passages 10–20) were maintained in a humidified atmosphere of 5% CO2 at 37 °C in Dulbecco’s Modified Eagles medium (DMEM) (Gibco Invitrogen. Paisley. UK) supplemented with 20% fetal bovine serum, 1% nonessential amino acids, 1% penicillin (1000 U/mL), 1% streptomycin ([…]) and 1% amphotericin (250 U/mL). The Caco-2 cells were subcultured in 25 cm^2 plastic flasks at a density of 3 × 10^5 cells/cm^2, while the fibroblasts were subcultured on 75 cm^2 plastic flasks at a density of 1 × 10^4 cells/cm^2. The culture medium was replaced every 2 days.
The gold complexes were diluted in dimethyl sulfoxide (DMSO) as a 10 mM stock solution and then diluted in a cell culture medium at the desired concentrations. For the cytotoxicity screening assays, Caco-2 cells were seeded in 96-well plates at a density of 4 × 10^3 cells/well. […] The antiproliferative effect was measured using an MTT assay, as previously described by Marmol et al.[93] The absorbance at 540/620 nm was measured using a SPECTROstar Nano (BMG Labtech. Ortenberg. Germany). […]

COX-1 = biological target: T1, COX-1 (Homo sapiens, UniProt P23219); test: Intracellular COX-1 activity, kit on Caco-2/TC7 cell lysates; assay type: cell-based; conditions: Caco-2/TC7 cells, 24 h incubation with 20 μM of free ligands, mean ± SEM
T1 construct: a cyclooxygenase activity assay kit starting from Caco-2/TC7 cell lysates was used; endogenous in cells; host or cells: Caco-2/TC7 (human colon carcinoma)
T1 sequence (P23219 24-599): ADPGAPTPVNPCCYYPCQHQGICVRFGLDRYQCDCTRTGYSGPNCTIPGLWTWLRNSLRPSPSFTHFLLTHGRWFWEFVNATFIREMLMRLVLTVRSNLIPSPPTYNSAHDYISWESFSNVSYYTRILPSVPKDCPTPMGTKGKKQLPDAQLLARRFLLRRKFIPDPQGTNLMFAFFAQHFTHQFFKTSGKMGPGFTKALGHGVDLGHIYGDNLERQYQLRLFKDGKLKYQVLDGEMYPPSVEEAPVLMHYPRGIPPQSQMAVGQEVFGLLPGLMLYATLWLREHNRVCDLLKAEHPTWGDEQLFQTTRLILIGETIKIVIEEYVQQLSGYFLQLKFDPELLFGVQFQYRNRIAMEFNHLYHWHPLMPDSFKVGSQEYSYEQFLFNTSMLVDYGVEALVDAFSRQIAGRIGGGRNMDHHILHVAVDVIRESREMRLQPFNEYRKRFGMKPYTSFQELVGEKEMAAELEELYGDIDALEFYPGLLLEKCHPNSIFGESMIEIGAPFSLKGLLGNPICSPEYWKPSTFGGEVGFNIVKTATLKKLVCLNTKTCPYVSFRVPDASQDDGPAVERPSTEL
Excerpt: (§1) Previous studies have shown that modifications in the structure of the naproxen molecule have led to effective inhibition of COX-2, with a high degree of selectivity compared to the COX-1 isoform.[63],[64] Thus, we have tested the inhibitory activity of the best active compounds [Au(L3)(JohnPhos)] […] For this purpose, a cyclooxygenase activity assay kit starting from Caco-2/TC7 cell lysates was used, aiming to develop a new class of inhibitors that present a balanced COX-1/COX-2 inhibition to control the severe side effects resulting from nonselective COX inhibition. Inhibition of COX enzymes is expressed as the percentage of inhibition relative to control COX-1 or COX-2 activity. […] Complex [Au(L4)(JohnPhos)] […] This fact underscores the importance of the coordination of the metal center to the NSAID derivative, since the presence of the gold center is essential for achieving selectivity toward the COX-2 isoform, similar to what is observed in other gold compounds for different biomolecules.[65],[66]
(§2) The interaction of metal complexes with the enzyme cyclooxygenase was analyzed using a cyclooxygenase (COX) Activity Assay Kit (fluorometric) (AB204699 Abcam Inc. Massachusetts, USA). The procedural guidelines of the supplied kit were followed. The reaction commenced with the introduction of AA.

COX-2 = biological target: T2, COX-2 (Homo sapiens, UniProt P35354); test: Intracellular COX-2 activity, kit on Caco-2/TC7 cell lysates; assay type: cell-based; conditions: Caco-2/TC7 cells, 24 h incubation with 20 μM of free ligands, mean ± SEM
T2 construct: a cyclooxygenase activity assay kit starting from Caco-2/TC7 cell lysates was used; endogenous in cells; host or cells: Caco-2/TC7 (human colon carcinoma)
T2 sequence (P35354 18-604): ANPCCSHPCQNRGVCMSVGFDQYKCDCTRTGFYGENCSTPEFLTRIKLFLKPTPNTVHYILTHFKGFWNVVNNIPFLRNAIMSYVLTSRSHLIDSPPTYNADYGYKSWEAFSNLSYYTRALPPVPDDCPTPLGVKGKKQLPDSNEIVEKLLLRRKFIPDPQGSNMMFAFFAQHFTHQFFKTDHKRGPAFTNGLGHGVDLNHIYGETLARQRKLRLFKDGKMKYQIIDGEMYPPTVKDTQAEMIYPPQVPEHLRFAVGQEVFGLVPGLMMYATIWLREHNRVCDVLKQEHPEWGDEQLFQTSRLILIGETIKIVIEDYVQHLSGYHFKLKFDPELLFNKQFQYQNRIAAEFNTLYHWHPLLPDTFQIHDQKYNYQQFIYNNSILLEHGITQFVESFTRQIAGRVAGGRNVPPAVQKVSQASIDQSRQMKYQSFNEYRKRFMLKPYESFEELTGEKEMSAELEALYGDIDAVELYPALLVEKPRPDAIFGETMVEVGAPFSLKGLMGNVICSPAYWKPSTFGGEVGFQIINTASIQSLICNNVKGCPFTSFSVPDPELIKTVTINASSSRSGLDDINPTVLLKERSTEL
Excerpt: as §1, §2

Structure (SMILES): CC[PH](CC)(CC)[Au][S][C@@H]1O[C@H](COC(C)=O)[C@@H](OC(C)=O)[C@H](OC(C)=O)[C@H]1OC(C)=O [Auranofin, reference compound]
- log D7.4 [1]: –2.53
- IC50 (Caco-2/TC7 cells): 1800 ± 100 nM

Structure (SMILES): COC(=O)[C@H](CCSC)NC(=O)c1ccccc1Nc1cccc(C)c1C [L1, Methyl (2-((2,3-Dimethylphenyl)amino)benzoyl)methioninate]
- Percent inhibition of COX-1 (COX-1): 15.2 ± 5.7%
- Percent inhibition of COX-2 (COX-2): 63.1 ± 8.9%

Structure (SMILES): COC(=O)[C@H](CCSC)NC(=O)C(C)c1ccc(CC(C)C)cc1 (stereo partly drawn) [L2, Methyl (2-(4-Isobutylphenyl)propanoyl)methioninate]
- Percent inhibition of COX-1 (COX-1): 15.9 ± 7.3%
- Percent inhibition of COX-2 (COX-2): 55.8 ± 8.1%

Structure (SMILES): COC(=O)C(CCSC)NC(=O)Cc1c(C)n(C(=O)c2ccc(Cl)cc2)c2ccc(OC)cc12 (stereo not drawn) [L3]
- Percent inhibition of COX-1 (COX-1): 22.9 ± 10.7%
- Percent inhibition of COX-2 (COX-2): 53.6 ± 14.3%

Structure (SMILES): COC(=O)[C@H](CCSC)NC(=O)[C@@H](C)c1ccc2cc(OC)ccc2c1 [L4, Methyl ((S)-2-(6-Methoxynaphthalen-2-yl)propanoyl)methioninate]
- Percent inhibition of COX-1 (COX-1): 36.9 ± 7.6%
- Percent inhibition of COX-2 (COX-2): 44.7 ± 13.4%

Structure (SMILES): CC#N.[Au+].[F][Sb-]([F])([F])([F])([F])[F].c1ccc(-c2ccccc2P(C2CCCCC2)C2CCCCC2)cc1 [[Au(MeCN)(CyJohnPhos)]SbF6, reference compound]
- IC50 (Caco-2/TC7 cells): 1240 ± 670 nM

Structure (SMILES): CC#N.CC(C)(C)P(c1ccccc1-c1ccccc1)C(C)(C)C.[Au+].[F][Sb-]([F])([F])([F])([F])[F] [[Au(MeCN)(JohnPhos)]SbF6, reference compound]
- IC50 (Caco-2/TC7 cells): 900 ± 760 nM

From paper PMC11497205, “Gold(I) Complexes Based on Nonsteroidal Anti-Inflammatory Derivatives as Multi-Target Drugs against Colon Cancer” (Inorganic Chemistry, 2024)
